According to the supplement of paper PMC7214452:

Tests used:
Assay in all cases: normalized area under the dose-response curve (viability relative to DMSO control) (fraction); higher = less sensitive (more viable cells)
Details in all cases: exposure time not given
[1] = test system: OCI-LY3 (cancer type: DLBCL)
Protocol: (§1)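 25 myeloma and 15 non-Hodgkin lymphoma cell lines were exposed to each of 76 drugs as 7-point log dilutions (0.01 nM–10 µM) in duplicate. Viability was read with CellTiter-Glo and normalised to DMSO (0.1%) and staurosporine (10 µM) plate controls. Normalised AUC was calculated by the trapezoidal method relative to the negative control.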

Se-Ax (cancer type: TCL) = test system: Se-Ax (cancer type: TCL)
Protocol: as §1

MM1.S (cancer type: MM) = test system: MM1.S (cancer type: MM)
Protocol: as §1

[2] = test system: Granta-519 (cancer type: Mantle)
Protocol: as §1

[3] = test system: OCI-MY5/CRBN (cancer type: MM)
Protocol: as §1

[4] = test system: SU-DHL6 (cancer type: DLBCL)
Protocol: as §1

[5] = test system: OCI-LY1 (cancer type: DLBCL)
Protocol: as §1

XG2 (cancer type: MM) = test system: XG2 (cancer type: MM)
Protocol: as §1

[6] = test system: HuT 78 (cancer type: TCL)
Protocol: as §1

[7] = test system: KMS28PE (cancer type: MM)
Protocol: as §1

[8] = test system: KMS12PE (cancer type: MM)
Protocol: as §1

[9] = test system: KMS28BM (cancer type: MM)
Protocol: as §1

LP1 (cancer type: MM) = test system: LP1 (cancer type: MM)
Protocol: as §1

My-La (cancer type: TCL) = test system: My-La (cancer type: TCL)
Protocol: as §1

KMS34 (cancer type: MM) = test system: KMS34 (cancer type: MM)
Protocol: as §1

EJM (cancer type: MM) = test system: EJM (cancer type: MM)
Protocol: as §1

[10] = test system: RPMI 8226 (cancer type: MM)
Protocol: as §1

[11] = test system: OCI-MY5/Vec (cancer type: MM)
Protocol: as §1

[12] = test system: JVM2 (cancer type: Mantle)
Protocol: as §1

[13] = test system: OCI-LY19 (cancer type: DLBCL)
Protocol: as §1

U266 (cancer type: MM) = test system: U266 (cancer type: MM)
Protocol: as §1

[14] = test system: SR-786 (cancer type: TCL)
Protocol: as §1

[15] = test system: Mino (cancer type: Mantle)
Protocol: as §1

MM1.R (cancer type: MM) = test system: MM1.R (cancer type: MM)
Protocol: as §1

[16] = test system: SU-DHL1 (cancer type: TCL)
Protocol: as §1

SKMM2 (cancer type: MM) = test system: SKMM2 (cancer type: MM)
Protocol: as §1

[17] = test system: Karpas-299 (cancer type: TCL)
Protocol: as §1

FR4 (cancer type: MM) = test system: FR4 (cancer type: MM)
Protocol: as §1

JJN3 (cancer type: MM) = test system: JJN3 (cancer type: MM)
Protocol: as §1

[18] = test system: SU-DHL2 (cancer type: DLBCL)
Protocol: as §1

KMS11 (cancer type: MM) = test system: KMS11 (cancer type: MM)
Protocol: as §1

[19] = test system: NCI-H929 (cancer type: MM)
Protocol: as §1

L363 (cancer type: MM) = test system: L363 (cancer type: MM)
Protocol: as §1

[20] = test system: OCI-MY7 (cancer type: MM)
Protocol: as §1

AMO1 (cancer type: MM) = test system: AMO1 (cancer type: MM)
Protocol: as §1

KMS26 (cancer type: MM) = test system: KMS26 (cancer type: MM)
Protocol: as §1

KMS18 (cancer type: MM) = test system: KMS18 (cancer type: MM)
Protocol: as §1

OPM2 (cancer type: MM) = test system: OPM2 (cancer type: MM)
Protocol: as §1

[21] = test system: OCI-MY5 (cancer type: MM)
Protocol: as §1

[22] = test system: JeKo-1 (cancer type: Mantle)
Protocol: as §1

Row | SMILES | normalized area under the dose-response curve [1] | normalized area under the dose-response curve (Se-Ax (cancer type: TCL)) | normalized area under the dose-response curve (MM1.S (cancer type: MM)) | normalized area under the dose-response curve [2] | normalized area under the dose-response curve [3] | normalized area under the dose-response curve [4] | normalized area under the dose-response curve [5] | normalized area under the dose-response curve (XG2 (cancer type: MM)) | normalized area under the dose-response curve [6] | normalized area under the dose-response curve [7] | normalized area under the dose-response curve [8] | normalized area under the dose-response curve [9] | normalized area under the dose-response curve (LP1 (cancer type: MM)) | normalized area under the dose-response curve (My-La (cancer type: TCL)) | normalized area under the dose-response curve (KMS34 (cancer type: MM)) | normalized area under the dose-response curve (EJM (cancer type: MM)) | normalized area under the dose-response curve [10] | normalized area under the dose-response curve [11] | normalized area under the dose-response curve [12] | normalized area under the dose-response curve [13] | normalized area under the dose-response curve (U266 (cancer type: MM)) | normalized area under the dose-response curve [14] | normalized area under the dose-response curve [15] | normalized area under the dose-response curve (MM1.R (cancer type: MM)) | normalized area under the dose-response curve [16] | normalized area under the dose-response curve (SKMM2 (cancer type: MM)) | normalized area under the dose-response curve [17] | normalized area under the dose-response curve (FR4 (cancer type: MM)) | normalized area under the dose-response curve (JJN3 (cancer type: MM)) | normalized area under the dose-response curve [18] | normalized area under the dose-response curve (KMS11 (cancer type: MM)) | normalized area under the dose-response curve [19] | normalized area under the dose-response curve (L363 (cancer type: MM)) | normalized area under the dose-response curve [20] | normalized area under the dose-response curve (AMO1 (cancer type: MM)) | normalized area under the dose-response curve (KMS26 (cancer type: MM)) | normalized area under the dose-response curve (KMS18 (cancer type: MM)) | normalized area under the dose-response curve (OPM2 (cancer type: MM)) | normalized area under the dose-response curve [21] | normalized area under the dose-response curve [22]
1 | CCCS(=O)(=O)Nc1ccc(F)c(C(=O)c2c[nH]c3ncc(-c4ccc(Cl)cc4)cc23)c1F [Vemurafenib] | 0.951 | 0.673 | 0.95 | 0.957 | 0.958 | 0.92 | 0.933 | 1 | 0.964 | 0.998 | 0.91 | 1.28 | 0.89 | 0.976 | 0.765 | 0.902 | 0.975 | 0.998 | 0.924 | 0.912 | 0.8 | 0.98 | 0.917 | 0.97 | 0.867 | 0.994 | 0.969 | 0.825 | 0.784 | 0.972 | 0.909 | 0.79 | 0.898 | 0.94 | 0.808 | 0.965 | 0.938 | 0.936 | 0.788 | 0.971
2 | CC1(C)CCC(CN2CCN(c3ccc(C(=O)NS(=O)(=O)c4ccc(NCC5CCOCC5)c([N+](=O)[O-])c4)c(Oc4cnc5[nH]ccc5c4)c3)CC2)=C(c2ccc(Cl)cc2)C1 [Venetoclax] | 0.179 | 0.196 | 0.57 | 0.212 | 0.0571 | 0.0483 | 0.176 | 0.846 | 0.752 | 0.251 | 0.09 | 0.119 | 0.817 | 0.872 | 0.525 | 0.615 | 0.481 | 0.0321 | 0.73 | 0.247 | 0.366 | 0.952 | 0.876 | 0.48 | 0.696 | 0.0382 | 0.829 | 0.617 | 0.354 | 0.982 | 0.591 | 0.82 | 0.584 | 0.14 | 0.64 | 0.919 | 0.514 | 0.371 | 0.101 | 0.686
3 | CS(=O)(=O)c1ccc(C(=O)Nc2ccc(Cl)c(-c3ccccn3)c2)c(Cl)c1 [Vismodegib] | 0.939 | 0.765 | 0.85 | 0.924 | 0.942 | 0.864 | 0.967 | 0.867 | 0.9 | 0.871 | 0.94 | 0.948 | 0.906 | 0.873 | 0.801 | 0.901 | 0.889 | 0.922 | 0.819 | 0.827 | 0.896 | 0.858 | 0.911 | 0.88 | 0.807 | 1.01 | 0.895 | 1.02 | 0.906 | 0.94 | 0.93 | 0.87 | 0.859 | 0.94 | 0.871 | 0.838 | 0.995 | 0.932 | 0.826 | 0.878
4 | O=C(CCCCCCC(=O)Nc1ccccc1)NO [Vorinostat] | 0.469 | 0.331 | 0.46 | 0.717 | 0.517 | 0.672 | 0.432 | 0.692 | 0.43 | 0.542 | 0.63 | 0.56 | 0.637 | 0.672 | 0.554 | 0.607 | 0.721 | 0.427 | 0.598 | 0.443 | 0.738 | 0.533 | 0.449 | 0.55 | 0.519 | 0.781 | 0.426 | 0.521 | 0.649 | 0.528 | 0.627 | 0.35 | 0.635 | 0.51 | 0.482 | 0.551 | 0.855 | 0.767 | 0.4 | 0.421
5 | Cc1cccc(/C=N/Nc2cc(N3CCOCC3)n3nc(-c4ccncc4)cc3n2)c1 [apy0201] | 0.863 | 0.673 | 0.65 | 0.93 | 0.867 | 0.77 | 0.655 | 0.511 | 0.57 | 0.736 | 0.41 | 0.822 | 0.81 | 0.885 | 0.269 | 0.769 | 0.706 | 0.794 | 0.831 | 0.634 | 0.564 | 0.601 | 0.709 | 0.69 | 0.682 | 0.826 | 0.648 | 0.578 | 0.311 | 0.897 | 0.508 | 0.43 | 0.516 | 0.65 | 0.415 | 0.688 | 0.756 | 0.504 | 0.447 | 0.681
6 | Cc1sc2c(c1C)C(c1ccc(Cl)cc1)=N[C@@H](CC(=O)OC(C)(C)C)c1nnc(C)n1-2 [jq1] | 0.707 | 0.566 | 0.53 | 0.899 | 0.645 | 0.829 | 0.812 | 0.747 | 0.566 | 0.647 | 0.65 | 0.78 | 0.65 | 0.747 | 0.501 | 0.703 | 0.616 | 0.57 | 0.564 | 0.679 | 0.852 | 0.647 | 0.598 | 0.55 | 0.674 | 0.672 | 0.661 | 0.613 | 0.57 | 0.635 | 0.654 | 0.53 | 0.529 | 0.39 | 0.48 | 0.475 | 0.813 | 0.671 | 0.488 | 0.684
7 | Cc1sc2c(c1C)C(c1ccc(Cl)cc1)=N[C@@H](CC(=O)Nc1ccc(O)cc1)c1nnc(C)n1-2 [otx-015] | 0.759 | 0.657 | 0.56 | 0.902 | 0.641 | 0.757 | 0.752 | 0.622 | 0.859 | 0.681 | 0.59 | 0.801 | 0.701 | 0.796 | 0.514 | 0.685 | 0.642 | 0.563 | 0.609 | 0.637 | 0.62 | 0.695 | 0.595 | 0.61 | 0.729 | 0.657 | 0.628 | 0.732 | 0.568 | 0.558 | 0.656 | 0.54 | 0.545 | 0.4 | 0.497 | 0.395 | 0.713 | 0.7 | 0.491 | 0.84
